Values joined by “and” are separate entries in the source; they are usually repeats but may differ in a detail not shown here. Identical values can stand only once.
Assays:
[1] = system: Caco‐2 cells; assay: Uptake amount of 7,8-DHF in Caco-2 cells at the end of transport; format: in vitro ADME, human
Experimental: The cell surface was rapidly washed three times with ice-cold HBSS solution. The cells were harvested using a cell scraper and resuspended in 1.0 mL of 0.1% extraction solution (phosphate: methanol = 1:1, v/v) before being homogenized in an ultrasonicator.

[2] = In vitro digestion stability of 7,8-DHF (simulated saliva, gastric fluid, intestinal fluid); format: in vitro ADME; details: 7,8‐DHF combined with the named flavonoid
Experimental: The in vitro digestion model proposed by Versantvoort et al.'s report was modified as follows (Versantvoort et al., [2005]): […] The pH of the system was then adjusted to 7.5 and simulated intestinal fluid containing pancreatin and bile salts was added for 2 h of stirring. During the process, a certain amount of the digested liquid sample from the simulated saliva, gastric fluid, and intestinal fluid were taken, and ethanol was added to precipitate and inactivate the enzymes. […] A 1 mL aliquot was placed in a high-speed centrifuge tube (3K15, Sigma) and centrifuged at 4°C, 11000 × g for 15 min.

[3] = system: Caco‐2 monolayers; assay: Bi-directional transepithelial transport of 7,8-DHF across Caco-2 monolayers with flavonoids screened as P-gp inhibitors (Papp, ER); format: in vitro ADME, human; details: for Modulatory effect on 7,8‐DHF transport: flavonoid equimolar with 7,8‐DHF 10 μmol/L; for Modulatory effect on 7,8‐DHF transport: key: + indicates that the inhibitor has a significant effect on 7,8‐DHF transport; − indicates that the inhibitor has no significant effect on 7,8‐DHF transport
Experimental: (§1) For this experiment, the 7,8‐DHF sample was first dissolved in a small amount of dimethyl sulfoxide (DMSO) and then diluted with HBSS to a working concentration of 10 μmol/L. The final DMSO concentration in the working solution was controlled to be less than 0.5%. […] Flavonoid samples were added to the AP and BL sides at equimolar concentrations with 7,8‐DHF (the sample concentration in HBSS solution was 10 μmol/L). Prior to transport, dietary flavonoids were pretreated on the AP side for 30 min. Then, these flavonoid reagents were removed, and a 0.5 mL HBSS solution containing various dietary flavonoids with 7,8‐DHF (concentration of 10 μmol/L) was added to the AP side, while 1.5 mL of blank HBSS was added to the BL side. Conversely, 1.5 mL of HBSS solution containing various dietary flavonoids with 7,8‐DHF (10 μmol/L) was added to the BL side, and 0.5 mL of blank HBSS was added to the AP side.
(§2) The magnitude of the apparent permeability coefficients (P app, cm/s) and efflux ratio (ER) reflects the ability of the test substance to pass through the monolayer cells and the speed of absorption.
(§3) (4) ER=PappAB/PappBA where P app AB is the apparent permeability coefficient for AP → BL transport, and P app BA is the apparent permeability coefficient for BL → AP transport.
(§4) Effect of different concentrations of specific flavonoids on 7,8‐DHF transepithelial transport was investigated. The operating procedure was followed by above section, with the exception that specific dietary flavonoid samples were added to the AP and BL sides at varying molar ratios with 7,8‐DHF (2:1, 1:1, 1:2, and 1:4). The specific dietary flavonoids were dissolved in HBSS while controlling the DMSO concentration to be less than 0.5%.

[4] = parameters: method as in Liu et al., 2013; details: C57BL/6 mice, ref Liu et al., 2013; cited from earlier work
[5] = parameters: method as in Xiao and Högger (2015); details: DMEM solutions during Caco‐2 cell incubation; ref Xiao and Högger (2015); cited from earlier work
[6] = Stability of 7,8-DHF in HBSS; format: physicochemical; details: HBSS pH 7.4, 37°C, 10 μmol/L
Experimental: (§5) Simultaneously, 0.5 mL of the aforementioned solution was added to the AP side of the Transwell culture plate containing Caco‐2 cells, while 1.5 mL of blank HBSS added to the BL side. […] The Caco‐2 cell stability test was performed under both inhibitory and non‐inhibitory conditions, and the 7,8‐DHF content in the samples was determined.
(§6) A volume of 200 μL of receiving solution was transferred into a 1 mL centrifuge tube, followed by adding 10 μL of internal standard solution (10 μg/mL apigenin) and 200 μL of methanol. […] Thereafter, 5 μL of the supernatant was injected into the UPLC system. The UPLC system used in this study was a Waters ACQUITY UPLC H‐CLASS series instrument (Waters) equipped with a quaternary solvent manager, a sample manager‐flow through needle, a chromatographic column heater and a PDA eλ detector. […] The mobile phase comprised of methanol (solvent A) and 0.05% trifluoroacetic acid of ultrapure water (solvent B). The gradient elution program was as follows: 20% solvent A (0~1 min), 20%~80% solvent A (1~5 min), 80%~100% solvent A (5~7 min), 100 ~ 20% solvent A (7~8 min), and 20% solvent A (8~9 min). The flow rate maintained at 0.2 mL/min, the temperature was set to 37°C, and the PDA detector wavelength was set at 330 nm.

[7] = system: Caco‐2 cells; assay: Cytotoxicity, CCK-8 assay; format: cell-based, human; details: 24 h
Experimental: To determine the cytotoxicity of 7,8‐DHF for transport experiments, a CCK‐8 assay was carried out (Han et al., [2023]). A total of 200 μL culture medium containing Caco‐2 cells at a density of 3 × 10^4 cells/mL was seeded in a 96‐well plate and incubated for 24 h to allow for adherence. After the incubation period, the culture medium was removed and replaced with 200 μL fresh medium containing 7,8‐DHF at concentrations of 1, 10, 50, 100, and 300 μmol/L. Additionally, 200 μL medium without 7,8‐DHF was added as the control group, while medium without cells was used as the blank group. Following 24 h of drug stimulation, 10 μL CCK‐8 reagent was added to each well followed by another 2 h incubation. The absorbance was measured at 450 nm wavelength using an enzyme‐linked immunosorbent assay reader (Eonmei, BioTek). Each sample was repeated five times, and the cell survival rate was calculated using the following formula: (2) Cell survival rate%=ODsample group−ODblank group/ODcontrol group−ODblank group×100 where OD represents the absorbance of each sample at 450 nm wavelength.

[8] = Stability (recovery) of 7,8-DHF in Caco-2 cells with or without inhibitors; details: human, Caco-2, pH 7.4
Experimental: as §5, §6

[9] = system: Caco‐2 cells; assay: as above; details: 60 and 240 min incubation
Experimental: as §5, §6

[10] = in vitro; format: in vitro ADME, human; details: human, Caco-2
Experimental: as §1, §2, §3, §4

[11] = human, Caco-2, 150 min, 10 μmol/L

For `O=c1c(O)c(-c2ccc(O)c(O)c2)oc2cc(O)cc(O)c12` [Quercetin, quercetin], the “Uptake amount of 7,8‐DHF in Caco‐2 cells with the named flavonoid” value ([1]; molar concentration ratio flavonoid to 7,8‐DHF 1:2) was “did not increase the uptake”, the “Uptake amount of 7,8‐DHF in Caco‐2 cells with the named flavonoid” value ([1]; molar concentration ratio flavonoid to 7,8‐DHF 4:1) was “did not increase the uptake” and the “Effect of combined flavonoid on retention of 7,8‐DHF in simulated in vitro digestion” value [2] was “no significant effects were observed”. For the same compound, the “Modulatory effect on 7,8‐DHF transport” value ([3]; verapamil 100 μmol/L) was “+”.

With `O=c1cc(-c2ccc(O)c(O)c2)oc2c([C@@H]3O[C@H](CO)[C@@H](O)[C@H](O)[C@H]3O)c(O)cc(O)c12` [Orientin] the “Modulatory effect on 7,8‐DHF transport” value ([3]; verapamil 100 μmol/L) was “−”.

In the case of `O=c1c(O)c(-c2ccc(O)c(O)c2)oc2cc(O)ccc12` [Fisetin, fisetin], the “Modulatory effect on 7,8‐DHF transport” value ([3]; verapamil 100 μmol/L) is reported as “+”.

For `O=c1cc(-c2ccc(O)cc2)oc2cc(O)c([C@@H]3O[C@H](CO)[C@@H](O)[C@H](O)[C@H]3O)c(O)c12` [Isovitexin, isovitexin], the “Modulatory effect on 7,8‐DHF transport” value ([3]; verapamil 100 μmol/L) was “+”, the “ER of 7,8‐DHF in presence of the named inhibitor” value (“ER … of the named inhibitor” below) [3, 11] was 1.55 and the “P app AB of 7,8‐DHF in presence of the named inhibitor” value (shortened to “P app AB … of the named inhibitor”) [3, 11] was 1.27 ± 0.08 ×10^−6 cm/s. For the same compound, the “P app BA of 7,8‐DHF in presence of the named inhibitor” value (shortened to “P app BA … of the named inhibitor”) [3, 11] was 1.97 ± 0.11 ×10^−6 cm/s.

With `COc1ccc(-c2coc3cc(O)cc(O)c3c2=O)cc1` [Biochanin A, biochanin A] the “Modulatory effect on 7,8‐DHF transport” value ([3]; verapamil 100 μmol/L) was “−”.

In the case of `O=c1cc(-c2ccccc2)oc2c(O)c(O)ccc12` [7,8‐DHF, 7,8‐Dihydroxyflavone], the Oral bioavailability [4] is given as 4.6%, the “Half‐degradation time” value [5] is given as “above 180 min” and the “Recovery of 7,8-DHF” value ([6]; 60 min) is given as 98.71±1.07%. For the same compound, the “Recovery of 7,8-DHF” value ([6]; 240 min) was 97.26±2.17%, the “Cell toxicity toward Caco‐2 cells (CCK‐8)” value ([7]; 300 μmol/L) was “certain cell toxicity” and the “Cell toxicity toward Caco‐2 cells (CCK‐8)” value ([7]; concentration range 1~100 μmol/L) was “no significant cell toxicity”. For the same compound, the recovery at 60 min, 10 μmol/L [8] was 99.11 ± 0.57%, the recovery at 240 min, 10 μmol/L [8] was 97.74 ± 0.42% and the “Metabolism of 7,8‐DHF in Caco‐2 cells (recovery vs blank HBSS)” value [9] was “not metabolized”. The “Uptake amount of 7,8‐DHF in Caco‐2 cells” value ([1]; control, 7,8‐DHF without inhibitor, end of 150 min transport) was 0.378 ± 0.018 nmol/mg protein, the Papp A→B at 150 min, 10 μmol/L [10] was 1.19 ± 0.08 ×10⁻⁶ cm/s and the Papp B→A at 150 min, 10 μmol/L [10] was 1.91 ± 0.13 ×10⁻⁶ cm/s. It also gave an efflux ratio at 150 min, 10 μmol/L [10] of 1.61.

In the case of `O=c1cc(-c2ccccc2)oc2cc(O)c(O)c(O)c12` [Baicalein, baicalein], the “Modulatory effect on 7,8‐DHF transport” value ([3]; verapamil 100 μmol/L) is reported as “+” and the “ER … of the named inhibitor” value [3, 11] is reported as 1.59.

With `O=c1cc(-c2ccc(O)c(O)c2)oc2cc(O)c([C@@H]3O[C@H](CO)[C@@H](O)[C@H](O)[C@H]3O)c(O)c12` [Isoorientin, isoorientin] the “Modulatory effect on 7,8‐DHF transport” value ([3]; verapamil 100 μmol/L) was “+”.

In the case of `O=c1c(O)c(-c2cc(O)c(O)c(O)c2)oc2cc(O)cc(O)c12` [Myricetin, myricetin], the “Modulatory effect on 7,8‐DHF transport” value ([3]; verapamil 100 μmol/L) is reported as “+”.

For `O=c1c(-c2ccc(O)cc2)coc2cc(O)cc(O)c12` [Genistein, genistein], the “Modulatory effect on 7,8‐DHF transport” value ([3]; verapamil 100 μmol/L) was “+”.

In the case of `O=c1cc(-c2ccc(O)cc2)oc2c([C@@H]3O[C@H](CO)[C@@H](O)[C@H](O)[C@H]3O)c(O)cc(O)c12` [Vitexin, vitexin], the “Uptake amount of 7,8‐DHF in Caco‐2 cells after treatment with the named inhibitor” value ([1]; flavonoid: 7,8‐DHF 1:1 (equimolar), verapamil 100 μmol/L, end of 150 min transport) is reported as “significant decrease”, the “Modulatory effect on 7,8‐DHF transport” value ([3]; verapamil 100 μmol/L) is reported as “−” and the “P app AB … of the named inhibitor” value [3, 11] is reported as 1.14 ± 0.16 ×10^−6 cm/s. The “P app BA … of the named inhibitor” value [3, 11] was 1.94 ± 0.03 ×10^−6 cm/s.

In the case of `O=C1C[C@@H](c2ccc(O)cc2)Oc2cc(O)cc(O)c21` [Naringenin, naringenin], the “Modulatory effect on 7,8‐DHF transport” value ([3]; verapamil 100 μmol/L) is reported as “−”, the “P app AB … of the named inhibitor” value [3, 11] is reported as 1.16 ± 0.02 ×10^−6 cm/s and the “P app BA … of the named inhibitor” value [3, 11] is reported as 1.88 ± 0.11 ×10^−6 cm/s.

In the case of `O=c1c(O)c(-c2ccc(O)cc2)oc2cc(O)cc(O)c12` [Kaempferol, kaempferol], the “Effect of combined flavonoid on retention of 7,8‐DHF in simulated in vitro digestion” value [2] is reported as “no significant effects were observed” and the “Modulatory effect on 7,8‐DHF transport” value ([3]; verapamil 100 μmol/L) is reported as “+”.

With `O=C(O[C@@H]1Cc2c(O)cc(O)cc2O[C@@H]1c1cc(O)c(O)c(O)c1)c1cc(O)c(O)c(O)c1` [EGCG, epigallocatechin gallate] the “ER … of the named inhibitor” value ([3]; 7,8‐DHF 10 μmol/L, flavonoid equimolar (1:1, 10 μmol/L), verapamil 100 μmol/L) was 1.34, the “P app AB … of the named inhibitor” value ([3]; 7,8‐DHF 10 μmol/L, flavonoid equimolar (1:1, 10 μmol/L), verapamil 100 μmol/L, AP → BL, 150 min) was 1.21 ± 0.03 ×10^−6 cm/s and the “P app BA … of the named inhibitor” value ([3]; 7,8‐DHF 10 μmol/L, flavonoid equimolar (1:1, 10 μmol/L), verapamil 100 μmol/L, BL → AP, 150 min) was 1.63 ± 0.05 ×10^−6 cm/s and 1.62 ± 0.05 ×10^−6 cm/s. For the same compound, the “ER … of the named inhibitor” value ([3]; 7,8‐DHF 10 μmol/L, flavonoid equimolar (1:1, 10 μmol/L), verapamil 100 μmol/L, listed as epigallocatechin gallate) was “less than 1.5” and the “Modulatory effect on 7,8‐DHF transport” value ([3]; verapamil 100 μmol/L) was “+”.
